Assay [1] has as its target Pantothenate synthetase (MtPS) (Mycobacterium tuberculosis, UniProt P9WIL5). Kind of assay: Mycobacterial pantothenate synthetase (MtPS) screening. It is filed as biochemical. The settings on record: 50 μM compound. The procedure: Sixty microliters of the PS reagent mix was added, including NADH, pantoic acid, β-alanine, ATP, phosphoenolpyruvate, MgCl2, myokinase, pyruvate kinase, and lactate dehydrogenase in buffer, to each well of a 96-well plate. The compounds were then added to plates in 1 μL volumes. The reaction was initiated by the addition of 39 μL PS diluted in buffer. The final concentrations in the reaction were 0.4 mM NADH, 5 mM pantoic acid, 10 mM MgCl2, 5 mM β-alanine, 10 mM ATP, 1 mM potassium phosphoenolpyruvate, and 18 units/mL each of chicken muscle myokinase, rabbit muscle pyruvate kinase, and rabbit muscle lactate dehydrogenase diluted in 100 mM HEPES buffer (pH 7.8), 1% DMSO, and 5 μg/mL PS in a final volume of 100 μL. The test plate was immediately transferred to a microplate reader, and absorbance was measured at 340 nm every 12 sec for 120 sec. […] The per cent inhibition was calculated using the following formula: 100 ∗ 1 − compound rate − background rate/full reaction rate − background rate.

Assay [2] deals with T1, L-alanine dehydrogenase (MtAlaDH) (Mycobacterium tuberculosis, UniProt P9WQB1).
T1 sequence (P9WQB1 1-371): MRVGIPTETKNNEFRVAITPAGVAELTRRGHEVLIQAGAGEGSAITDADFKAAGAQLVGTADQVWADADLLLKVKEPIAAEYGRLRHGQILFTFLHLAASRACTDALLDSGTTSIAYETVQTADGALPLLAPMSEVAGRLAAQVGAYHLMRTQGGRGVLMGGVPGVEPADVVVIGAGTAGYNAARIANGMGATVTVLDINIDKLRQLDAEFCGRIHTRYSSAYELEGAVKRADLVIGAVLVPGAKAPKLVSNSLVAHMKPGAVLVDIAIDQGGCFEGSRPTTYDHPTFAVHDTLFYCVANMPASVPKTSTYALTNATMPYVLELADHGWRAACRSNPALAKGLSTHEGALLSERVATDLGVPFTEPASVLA
In words: biochemical.

In another assay the target is T2, Chorismate mutase (MtCM) (Mycobacterium tuberculosis, UniProt P9WIB9).
T2 sequence (P9WIB9 34-199): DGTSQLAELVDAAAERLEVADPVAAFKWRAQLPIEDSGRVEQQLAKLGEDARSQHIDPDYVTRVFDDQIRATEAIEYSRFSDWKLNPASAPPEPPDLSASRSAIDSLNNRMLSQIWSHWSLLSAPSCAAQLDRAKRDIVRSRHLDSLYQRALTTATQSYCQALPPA
In words: biochemical. The procedure: Reaction volumes of 0.4 mL of chorismate (typically 1 mM) in 50 mM Tris HCl (pH 7.5), 0.5 mM EDTA, 0.1 mg/mL bovine serum albumin, and 10 mM β-mercaptoethanol were incubated at 37°C for 5 min. […] The reaction was allowed to proceed at 37°C and was terminated after 1 to 5 min with 0.4 mL 1 M HCl. After a further incubation at 37°C for 10 min to convert prephenate, which is formed in the enzymatic reaction, to phenylpyruvate, 0.8 mL 2.5 M NaOH was added. The absorbance of the phenylpyruvate chromophore was read at 320 nm. We set up a blank with no enzyme for every reaction to account for the nonenzymatic conversion of chorismate to prephenate and added the enzyme after the addition of NaOH. […] A description of the methods can be found in the literature.

For assay [3], the target named is T3, Lysine ε-aminotransferase (MtLAT) (Mycobacterium tuberculosis, UniProt P9WQ77).
T3 sequence (P9WQ77 1-449): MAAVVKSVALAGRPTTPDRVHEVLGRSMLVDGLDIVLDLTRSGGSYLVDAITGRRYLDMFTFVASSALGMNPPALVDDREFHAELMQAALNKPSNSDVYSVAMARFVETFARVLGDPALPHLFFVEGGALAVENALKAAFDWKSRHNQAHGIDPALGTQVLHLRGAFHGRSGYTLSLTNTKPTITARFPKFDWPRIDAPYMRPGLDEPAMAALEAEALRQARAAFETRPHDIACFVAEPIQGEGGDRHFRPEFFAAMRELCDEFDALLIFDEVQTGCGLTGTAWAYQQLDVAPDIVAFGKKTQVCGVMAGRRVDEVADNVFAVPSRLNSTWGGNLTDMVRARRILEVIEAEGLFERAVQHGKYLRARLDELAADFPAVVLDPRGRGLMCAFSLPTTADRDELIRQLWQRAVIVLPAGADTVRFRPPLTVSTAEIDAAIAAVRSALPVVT
Kind of assay: biochemical.

Assay [4] has as its target mycobacterial isocitrate lyase (ICL) (Mycobacterium tuberculosis, UniProt P9WKK7). In words: Isocitrate lyase assay (ICL1), glyoxylate phenyl hydrazone formation. It is filed as biochemical. The settings on record: read-out: % ICL inhibition at 10 μM (±standard deviation). The procedure: Isocitrate lyase activity was assayed according to the protocol reported by Dixon and Kornberg (glyoxylate phenyl hydrazone formation) at 10 µM of the investigated compounds. […] A description of the method can be found in the literature.

The subject of another assay is Mtb H37Rv strain. The settings on record: cited from earlier work.

Read-outs that look alike come from different tables or passages of the source. Bounds are passed on as bounds.

By % inhibition is commonly meant how much of the control response was suppressed. As usually defined, the IC50 is the concentration that inhibits the measured activity by half. A high value points to weaker potency. What is called inhibition is the change of the read-out against control, counted positive when it falls.

mycobacterial isocitrate lyase (ICL), sequence (P9WKK7 whole entry): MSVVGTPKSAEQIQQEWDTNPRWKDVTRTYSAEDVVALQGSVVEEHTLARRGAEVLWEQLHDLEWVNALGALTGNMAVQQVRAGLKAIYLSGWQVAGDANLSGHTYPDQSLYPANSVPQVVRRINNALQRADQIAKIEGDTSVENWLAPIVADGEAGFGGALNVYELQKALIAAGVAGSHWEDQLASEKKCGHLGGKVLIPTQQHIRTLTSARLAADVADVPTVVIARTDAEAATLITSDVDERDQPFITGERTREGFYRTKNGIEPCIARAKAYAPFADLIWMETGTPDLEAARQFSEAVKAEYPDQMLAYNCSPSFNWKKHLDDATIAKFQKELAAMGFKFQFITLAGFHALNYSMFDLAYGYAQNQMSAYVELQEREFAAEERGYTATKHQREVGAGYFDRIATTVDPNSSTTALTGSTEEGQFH
Pantothenate synthetase (MtPS), sequence (P9WIL5 whole entry, looked up): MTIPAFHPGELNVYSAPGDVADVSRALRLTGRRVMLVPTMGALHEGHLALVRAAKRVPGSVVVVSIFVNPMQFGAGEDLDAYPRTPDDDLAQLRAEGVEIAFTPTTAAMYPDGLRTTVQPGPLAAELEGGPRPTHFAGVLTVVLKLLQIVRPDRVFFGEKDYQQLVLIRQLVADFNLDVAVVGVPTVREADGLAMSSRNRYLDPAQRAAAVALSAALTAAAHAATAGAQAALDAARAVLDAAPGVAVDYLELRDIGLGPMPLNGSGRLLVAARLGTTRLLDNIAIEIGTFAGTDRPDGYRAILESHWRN

`CCOP(=O)(OCC)Oc1cc(Cl)ccc1C(=O)Nc1cccc(Cl)c1` [1j]: in assay [1], the “% inhibition at 50 μM against MtPS” value is 3.64%. In assay [2], the “% inhibition at 50 μM against L-MtAlaDH” value was determined as 12.30% and the concentration for half-maximal inhibition (IC50) was more than 50 µM. Also, the “% inhibition at 50 μM against MtCM” value at Chorismate mutase (MtCM) stood at 54.56%. Moreover, the “% inhibition at 50 μM against MtLAT” value in assay [3] worked out at 29.30%.
In the case of `CCOP(=O)(OCC)Oc1cc(Cl)ccc1C(=O)Nc1ccc(C(F)(F)F)cc1` [1r], in assay [2], the “% inhibition at 50 μM against L-MtAlaDH” value worked out at 47.28% and the half-maximal inhibitory concentration (IC50) was more than 50 µM. Moreover, at Chorismate mutase (MtCM), the “% inhibition at 50 μM against MtCM” value was found to be 50.05%. In addition, the “% inhibition at 50 μM against MtLAT” value in assay [3] amounted to 23.18%.
For the compound `CCOP(=O)(OCC)Oc1cc(Cl)ccc1C(=O)Nc1cccc(Cl)c1` [1s, 5-Chloro-2-[(3-chlorophenyl)carbamoyl]phenyl diethyl phosphate], the inhibition at 10 µM in assay [4] stood at 6 ± 0.83%. Moreover, the inhibition at 50 µM in assay [1] (read-out: % inhibition at 50 μM against MtPS) is 11.2%; in assay [2] (read-out: % inhibition at 50 μM against L-MtAlaDH, 50 μM compound), more than 70%; at Chorismate mutase (MtCM) (read-out: % inhibition at 50 μM against MtCM, 50 μM compound), more than 60%; in assay [3] (read-out: % inhibition at 50 μM against MtLAT, 50 μM compound) it was more than 50%. Besides, half-maximal inhibition in assay [2] (IC50) was put at 4.96 µM. The “MICs against actively growing Mtb H37Rv strain” value in the assay with Mtb H37Rv strain was 4 to 8 µM.
With `O=C(O)CC[N+](=O)[O-]` [3-Nitropropionic acid, 3-nitropropionic acid], in assay [4] (10 μM compound), the inhibition at 10 µM turned out to be 25 ± 4.1%.
On the same count and under the same terms, the same measure for `NNC(=O)c1ccncc1` [Isoniazid]: 0%.

The values are drawn from publication PMC4236894, “Salicylanilide Diethyl Phosphates as Potential Inhibitors of Some Mycobacterial Enzymes” (The Scientific World Journal, 2014).
